Test results: patent US12590062B2, “PD-1/PD-L1 inhibitors” (Gilead Sciences, Inc., priority 2017, dated 2026)
pEC50, pIC50: −log10 of the molar value.

Legend:
PD-1/PD-L1 interaction = target: T1, PD-1/PD-L1 interaction (Homo sapiens, UniProt Q9NZQ7); assay: PD-1/PD-L1 NFAT reporter co-culture assay; format: cell-based; details: Jurkat PD-1 NFAT-luciferase cells co-cultured with aAPC-PD-L1 CHO cells, 6 hrs at 37° C.; read-out: EC50 NFAT Luciferase
T1 construct: expressed in transfected cells; host or cells: CHO cells (aAPC-PD-L1) co-cultured with Jurkat cells overexpressing PD-1 and an NFAT-luciferase reporter
T1 sequence (Q9NZQ7 19-290): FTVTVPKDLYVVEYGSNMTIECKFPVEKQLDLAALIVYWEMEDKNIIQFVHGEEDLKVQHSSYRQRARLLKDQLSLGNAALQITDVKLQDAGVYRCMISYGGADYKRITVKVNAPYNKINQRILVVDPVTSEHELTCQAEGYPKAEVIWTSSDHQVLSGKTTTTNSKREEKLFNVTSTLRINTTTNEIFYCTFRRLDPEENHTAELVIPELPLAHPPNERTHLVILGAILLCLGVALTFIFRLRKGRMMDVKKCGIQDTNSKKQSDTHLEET
Method in brief: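 Jurkat cells overexpressing PD-1 with NFAT-driven luciferase were mixed with compound in RPMI 1640/2% FBS and seeded onto overnight-plated CHO aAPC-PD-L1 cells expressing surface anti-CD3 and PD-L1. Co-culture ran 6 h at 37 °C; luminescence read with ONE-Glo; EC50 from four-parameter fit.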

PD-1/PD-L1 = PD-1/PD-L1 (Homo sapiens, UniProt Q9NZQ7); assay: PD-1/PD-L1 biochemical protein-protein interaction assay (ALPHA); format: binding; details: 0.3 nM His tagged PD-L1, 2.5 nM biotinylated Fc-PD-1, 60 minutes at 25° C., read-out: IC50 PD-L1-PD-1 Alpha IC50-mono PD-L1-fcP-D1
Sequence of PD-1/PD-L1 (Q9NZQ7 19-238 limits assumed): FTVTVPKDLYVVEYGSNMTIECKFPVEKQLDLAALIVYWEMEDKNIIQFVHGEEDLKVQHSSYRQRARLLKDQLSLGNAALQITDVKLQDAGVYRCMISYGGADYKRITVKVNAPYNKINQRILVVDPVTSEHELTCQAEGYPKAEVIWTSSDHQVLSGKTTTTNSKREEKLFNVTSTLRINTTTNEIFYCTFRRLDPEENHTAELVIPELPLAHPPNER
Method in brief: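 ALPHA bead proximity assay of extracellular domains: 0.3 nM His-PD-L1 with 2.5 nM biotinylated Fc-PD-1 in 25 mM Hepes pH 7.4, 150 mM NaCl, 3.4 mM EDTA, 0.005% Tween 20, 0.01% BSA, 60 min at 25 °C. Anti-His acceptor and streptavidin donor beads added; IC50 from four-parameter fit of signal loss.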

PD-L1 = target: T2, PD-L1 (Homo sapiens, UniProt Q9NZQ7); assay: PD-L1/PD-L1 dimerization biochemical protein-protein interaction assay (ALPHA); format: binding; details: compound-induced PD-L1 dimerization, head prints '1 nM' (0.5 nM His-tagged PD-L1 and 0.5 nM FLAG-tagged PD-L1), read-out: AC50 PDL1 Dimer Alpha 1 nM
T2 construct: determine if they can specifically dimerize the extracellular domains of PD-L1
T2 sequence (Q9NZQ7 19-238 limits assumed): as above
T2 sequence (Q9NZQ7 19-238 limits assumed): as above
Method in brief: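 ALPHA proximity assay of compound-induced dimerization of 0.5 nM His-tagged and 0.5 nM FLAG-tagged PD-L1 extracellular domains in Hepes pH 7.4 buffer, 2 h at 25 °C. Anti-His acceptor then anti-FLAG donor beads, 60 min each; AC50 from four-parameter fit.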

Row | SMILES | pEC50 (PD-1/PD-L1 interaction) | pIC50 (PD-1/PD-L1) | AC50 (PD-L1) [nM]
1 | O=C1CC[C@@H](CNCc2ccc(-c3cccc(-c4cccc(-c5ccc(CNC[C@@H]6CCC(=O)N6)c(N6CCOCC6)c5)c4Cl)c3Cl)cc2N2CCOCC2)N1 [Example 626] | ≤ 4.30 | 8.51 | ≥ 10000
2 | C[C@@](CO)(NCc1cc(Cl)c(O[C@H]2CCc3c(-c4cccc(-c5ccc(OCCNCCO)cc5)c4Cl)cccc32)nc1OCc1cncc(C#N)c1)C(=O)O [Example 674] | 7.36 | 10.19 | 11.3
3 | C[C@@](CO)(NCc1cc(Cl)c(O[C@H]2CCc3c(-c4cccc5c4CC[C@@H]5Oc4nc(OCc5cncc(C#N)c5)c(CNCCO)cc4Cl)cccc32)nc1OCc1cncc(C#N)c1)C(=O)O [Example 295] | 6.55 | 9.51 | 67.6
4 | COc1nc(-c2cccc(-c3cccc(-c4ccc5c(c4)[C@H](N)CC5)c3Cl)c2Cl)ccc1C1=NCCN1 [Example 623] | ≤ 4.30 | 8.28 | ≥ 10000
5 | COc1nc(OCc2cccc(-c3cccc(-c4ccc5c(c4)C[C@@H](N)C5)c3Cl)c2Cl)c(Br)cc1CNC[C@H](O)CC(=O)O [Example 548] | 6.71 | 9.17 | 74.6
6 | Cc1c(COc2cc(OCc3cncc(C#N)c3)c(CNC[C@@H](O)CC(=O)O)cc2Cl)cccc1-c1cccc(-c2ccc3c(c2)CC(NCCO)C3)c1C (stereo partly drawn) [Example 473] | 7.07 | 9.80 | 76.8
7 | C[C@@](CO)(NCc1cc(Cl)c(OCc2cccc(-c3cccc(COc4cc(OCc5cncc(C#N)c5)c(CN[C@@](C)(CO)C(=O)O)cc4Cl)c3Br)c2Br)cc1OCc1cncc(C#N)c1)C(=O)O [Example 478] | 7.32 | 10.19 | 268
8 | C[C@@](CO)(NCc1ccc(O[C@H]2CCc3c(-c4cccc5c4CC[C@@H]5Oc4nc(OCc5cncc(C#N)c5)c(CN[C@@](C)(CO)C(=O)O)cc4Cl)cccc32)cc1)C(=O)O [Example 685] | 6.20 | 9.26 | 1820
9 | COc1cc(-c2cccc(-c3cccc(COc4nc(OC)c(CN5CC6(C5)CN(C(C)=O)C6)cc4Br)c3Cl)c2Cl)ccc1CN1CC2(C1)CN(C(C)=O)C2 [Example 425] | 6.26 | 9.12 | 226
10 | N#Cc1cncc(COc2cc(OCc3cccc(-c4cccc(COc5cc(OCc6cncc(C#N)c6)c(CNC[C@@H](O)CC(=O)O)cc5Cl)c4Br)c3Br)c(Cl)cc2CNC[C@@H](O)CC(=O)O)c1 [Example 479] | 7.35 | 10.01 | 348
11 | Cc1c(COc2cc(OCc3cncc(C#N)c3)c(CN[C@@](C)(CO)C(=O)O)cc2Cl)cccc1-c1cccc(-c2ccc(OCCN3CCC4(CC3)CNC(=O)C4)cc2)c1C [Example 521] | 6.97 | 10.19 | 125
12 | COc1nc(-c2cccc(-c3cccc(-c4ccc5ncc(CNC[C@@H](O)CC(=O)O)n5c4)c3Cl)c2Cl)ccc1CNC[C@@H](O)CC(=O)O [Example 621] | ≤ 4.30 | 8.98 | ≥ 10000
13 | C[C@@](CO)(NCc1cc(Cl)c(O[C@H]2CCc3c(-c4cccc(-c5ccc(OCCN6CC[C@@H](O)C6)cc5)c4Cl)cccc32)nc1OCc1cncc(S(C)(=O)=O)c1)C(=O)O [Example 669] | 6.20 | 10.19 | 17.2
14 | Cc1c(COc2cc(OCc3cncc(C#N)c3)c(CN[C@@](C)(CO)C(=O)O)cc2Cl)cccc1-c1cccc(-c2ccc(CC3CCCN3)cc2)c1C (stereo partly drawn) [Example 292, (2S)-2-((5-chloro-2-((5-cyanopyridin-3-yl)methoxy)-4-((2,2′-dimethyl-4″-(pyrrolidin-2-ylmethyl)-[1,1′:3′,1″-terphenyl]-3-yl)methoxy)benzyl)amino)-3-hydroxy-2-methylpropanoic acid] | 6.21 | 9.29 | 230
15 | Cc1c(COc2cc(OCc3cncc(C#N)c3)c(CN[C@@](C)(CO)C(=O)O)cc2Cl)cccc1-c1cccc(-c2cccc([C@H](C)N)c2)c1C [Example 499] | 7.23 | 10.03 | 86.5
16 | Cc1c(-c2ccc(OCCNC[C@@H](O)CC(=O)O)cc2)cccc1-c1cccc2c1CC[C@@H]2Oc1ccc(CNC[C@@H](O)CC(=O)O)c(OCc2cncc(C#N)c2)n1 [Example 677] | 6.84 | 10.20 | 180
17 | Cc1c(COc2cc(OCc3cncc(C#N)c3)c(CN[C@](C)(CO)C(=O)O)cc2Cl)cccc1-c1cccc(-c2ccc(OC3CN4CCC3CC4)cc2)c1C (stereo partly drawn) [Example 302, (2R)-2-((5-chloro-2-((5-cyanopyridin-3-yl)methoxy)-4-((2,2′-dimethyl-4″-(quinuclidin-3-yloxy)-[1,1′:3′,1″-terphenyl]-3-yl)methoxy)benzyl)amino)-3-hydroxy-2-methylpropanoic acid] | 6.55 | 9.46 | 76.2
18 | C[C@@](CO)(NCc1cc(Cl)c(O[C@H]2CCc3c(-c4cccc(-c5ccc(OCCN6CC[C@@H](O)C6)cc5)c4Cl)cccc32)nc1OCc1cncc(C#N)c1)C(=O)O [Example 668] | 6.05 | 10.19 | 16.5
19 | C[C@@](CO)(NCc1cc(Cl)c(O[C@H]2CCc3c(-c4cccc5c4CC[C@@H]5Oc4nc(OCc5cncc(S(C)(=O)=O)c5)c(CN5CC[C@@H](O)C5)cc4Cl)cccc32)nc1OCc1cncc(S(C)(=O)=O)c1)C(=O)O [Example 688] | ≤ 4.30 | 9.39 | 141
20 | Cc1c(COc2cc(OCc3cncc(C#N)c3)c(CN[C@@H]3CCC[C@@H]3O)cc2Cl)cccc1-c1cccc(-c2ccc3c(c2)CCC3N2CC[C@H](CC(=O)O)C2)c1C (stereo partly drawn) [Example 584] | 6.83 | 9.91 | 38.6

The remaining lines, values ahead:

Row | pEC50 (PD-1/PD-L1 interaction) | pIC50 (PD-1/PD-L1) | AC50 (PD-L1) [nM] | SMILES
21 | 7.66 | 10.19 | 54.6 | COc1nc(-c2cccc(-c3cccc4c3CC[C@@H]4Oc3nc(OC)c(CN4CC[C@H](C(=O)O)C4)cc3Cl)c2Cl)ccc1CN1CC(O)C1 [Example 710]
22 | 6.63 | 8.72 | 211 | COc1nc(O[C@H]2CCc3c(-c4cccc(-c5cnc(CN[C@@H]6CCC[C@@H]6O)c(OC)n5)c4Cl)cccc32)c(Cl)cc1CNC[C@@H]1CCC(=O)N1 [Example 647]
23 | 7.09 | 8.71 | 136 | COc1nc(-c2cccc(-c3cccc4c3CC[C@@H]4Oc3nc(OC)c(CNC[C@@H]4CCC(=O)N4)cc3Cl)c2Cl)ccc1CN[C@@H]1CCC[C@@H]1O [Example 644]
24 | 7.08 | 9.56 | 68 | COc1nc(O[C@H]2CCc3c(-c4cccc(-c5ccc(C6=NCCN6)c(OC)n5)c4Cl)cccc32)c(Br)cc1CN1CC2(C1)CN(C(C)=O)C2 [Example 775]
25 | 7.41 | 9.54 | 8.2 | COc1nc(O[C@H]2CCc3c(-c4cccc(-c5ccc(CNC[C@@H]6CCC(=O)N6)c(OCC#N)c5)c4Cl)cccc32)c(Cl)cc1CN[C@@H]1CCC[C@@H]1O [Example 650]
26 | 7.92 | 10.00 | 16.9 | C[C@@](CO)(NCc1cc(Cl)c(O[C@H]2CCc3c(-c4cccc(-c5ccc6c(c5)C[C@@H](N)C6)c4Cl)cccc32)nc1OCc1cncc(C#N)c1)C(=O)O [Example 696]
27 | 6.10 | 8.76 | 94.2 | COc1nc(O[C@H]2CCc3c(-c4cccc(-c5ccc6c(c5)C[C@@H](N)C6)c4Cl)cccc32)c(Br)cc1CNC[C@@H]1CCC(=O)N1 [Example 794]
28 | 7.33 | 10.19 | 16 | COc1nc(O[C@H]2CCc3c(-c4cccc(-c5ccc(CNC[C@@H]6CCC(=O)N6)cc5)c4Cl)cccc32)c(Cl)cc1CN1CC[C@@H](C(=O)O)C1 [Example 722]
29 | 7.60 | 10.19 | 15 | COc1nc(-c2cccc(-c3cccc4c3CC[C@@H]4Oc3nc(OC)c(CNC[C@@H](O)CC(=O)O)cc3Cl)c2Cl)ccc1CNC[C@@H]1CCC(=O)N1 [Example 728]
30 | ≤ 4.30 | 8.76 | 214 | COc1nc(-c2cccc(-c3cccc(-c4ccc5[nH]cc(CN(C)C)c5c4)c3Cl)c2Cl)ccc1CNC[C@@H]1CCC(=O)N1 [Example 608]
31 | 8.00 | 10.19 | 13.2 | COc1nc(-c2cccc(-c3cccc4c3CC[C@@H]4Oc3nc(OC)c(CN4CCCC(C)(C(=O)O)C4)cc3Cl)c2Cl)ccc1CNC[C@@H]1CCC(=O)N1 (stereo partly drawn) [Example 761]
32 | 7.92 | 10.19 | 3.1 | C[C@@](CO)(NCc1cc(Br)c(O[C@H]2CCc3c(-c4cccc(-c5ccc(CNC[C@@H]6CCC(=O)N6)cc5)c4Cl)cccc32)nc1OCc1cncc(C#N)c1)C(=O)O [Example 741]
33 | 6.74 | 10.19 | 28.9 | COc1nc(O[C@H]2CCc3c(-c4cccc(-c5ccc6c(c5)C[C@@H](N)C6)c4Cl)cccc32)c(Br)cc1CN[C@@](C)(CO)C(=O)O [Example 784]
